How the values were obtained:
[1] = tested on: Human Washed Platelets (WP); assay: Shear stress-induced platelet aggregation inhibition in human washed platelets (WP); assay type: cell-based; settings: for inhibited shear stress-induced platelet aggregation in WP: 10, 25, 50 μM; for inhibition at 10 µM / inhibition at 25 µM / inhibition at 50 µM: Platelet, human WP, read-out: Degree of inhibition (%, Mean ± SEM)
Experimental: 1-2. Measurement of Platelet Aggregation Inhibitory Effect Using Human Washed Platelets (WP)
To separate human washed platelets (WP), blood was collected from the veins of healthy males using acid-citrate-dextrose (ACD) as an anticoagulant. At the time of blood collection, platelet activation was inhibited by treatment with 1 μM of prostaglandin E1 (PGE1). The collected blood was centrifuged at 150 g for 15 minutes to obtain PRP from the supernatant, which was centrifuged at 500 g for 10 minutes to obtain platelets. The platelets were suspended in and washed with a washing buffer (134 mM NaCl, 2.9 mM KCl, 1.0 mM MgCl2.6H2O, 10.0 mM HEPES, 5.0 mM dextrose, 12.0 mM NaHCO3, 0.34 mM Na2HPO4, 10% ACD, 0.3% bovine serum albumin, 1 μM PGE1, pH 7.4), and then re-centrifuged at 400 g for 10 minutes. The platelets thus obtained were suspended in the suspension buffer. The number of platelets in WP were counted using a hemacytometer. The platelets were diluted with the suspension buffer so as to include 3×10^8 platelets per 1 ml, and CaCl2 was added to give a final concentration of 2 mM and then used in the experiments. vWF was added to WP to give a final concentration of 10 μg/ml. WP was put on a cone-plate viscometer, and shear stress was applied to the WP at 37° C. for 3 minutes at a shear rate of 10,800 s^−1. In order to evaluate efficacy of candidate substances, prior to the induction of platelet aggregation, WP was treated with 10, 25, and 50 μM of candidate substances and incubated at 37° C. for 3 minutes using a thermomixer. After applying the shear stress, 20 μl of WP was fixed in 280 μl of the suspension buffer containing 0.5% glutaraldehyde. Then, the number of single platelets in the suspension was counted using a hemacytometer. The degree of inhibition by the candidate substance was calculated according to formula (1). No shear stress-applied group served as control, and only shear stress-applied group served as a positive control.

[2] = tested on: iron chloride (FeCl3)-induced thrombogenesis model; assay: Arterial thrombosis model, FeCl3-induced carotid artery thrombogenesis; assay type: in vivo, Sprague-Dawley rats; settings: rat, 25 mg/kg oral; for Time of thrombogenesis: FeCl3 applied 60 min after administration, occlusion time; for Fold (vs. Control): time of thrombogenesis vs. vehicle control
Experimental: Vehicle (DMSO: Tween 80: DW=1:2:17) or candidate substance (25 mg/kg) was orally administered to overnight-fasted male Sprague-Dawley rats (250 to 300 g). 30 minutes after administration, the rats were anesthetized by intraperitoneal injection of urethane (1.25 g/kg). The anesthetized animals were restrained on the operating table, and the body temperature was maintained using a heating pad during the entire operating procedure. An incision was made around the neck of the animals to carefully expose the right carotid artery, and the adipose tissues attached to the blood vessels were carefully removed. Doppler flow probe (0.5 mm-diameter, MA0.5PSB, Transonic System Inc., USA) was fixed to the exposed carotid artery, and a doppler flow-meter (TS420, Transonic System Inc., USA) was connected thereto. 60 minutes after oral administration, a piece of Whatman No. 1 filter paper (2 mm×1 mm) soaked with 50% FeCl3 solution was attached to the underlying blood vessels to which the probe was fixed. The filter paper was removed after 10 minutes, and the change of blood flow due to thrombus formation in the carotid artery was measured for 60 minutes after the time point of removal. The occlusion time was defined as the time at which the blood flow became zero more than one minute for the first time.

[3] = tested on: collagen-induced platelet aggregation, Human PRP; assay: Collagen-induced platelet aggregation in human PRP (lumi-aggregometer); assay type: cell-based; settings: collagen 2-5 μg/ml
Experimental: (§1) To investigate whether the candidate substance has inhibition selectivity for shear-stress-induced platelet aggregation, which is by a physical stimulus, […] experiment was conducted by activating platelets with physiological agonists—i.e., thrombin, collagen and ADP—to study the inhibitory effect of the candidate substance.
(§2) Human PRP (598.8 μl) was treated with 1.2 μl of the candidate substance per concentration (25, 100, 250 μM) and reacted at 37° C. for 3 minutes using a thermomixer. Then, PRP (495 μl) was put in the aggregometer cuvette and preincubated for 1 minute, followed by treatment with platelet aggregation-inducing reagent, thrombin (0.6-0.8 U/ml), collagen (2-5 μg/ml), or ADP (adenosine diphosphate, 15-20 μM) at the minimum concentration causing maximum aggregation. The degree of aggregation of the platelets was measured by a turbidity change using a lumi-aggregometer (Chrono-Log Co., USA). The turbidity of the PRP was considered as 0%, and the turbidity of the PPP was considered as 100%. During the measurement, the reaction mixture was continuously stirred at 1,000 rpm with a silicone-coated magnetic stir bar.

[4] = tested on: ADP-induced platelet aggregation, Human PRP; assay: ADP-induced platelet aggregation in human PRP (lumi-aggregometer); assay type: cell-based; settings: ADP 15-20 μM
Experimental: as §1, §2

[5] = tested on: human vascular endothelial cells (EA.hy926); assay: Cytotoxicity in EA.hy926 cell line (MTT assay); assay type: cell-based; settings: 24 hours
Experimental: 5-1. Evaluation of Cytotoxicity of Candidate Substances Using EA.hy926 Cell Line
Experiments were conducted to determine the cytotoxicity of candidate substances in human vascular endothelial cells (EA.hy926). EA.hy926 was passaged in DMEM (Dulbecco's […]) supplemented with 10% fetal bovine serum (FBS) at 5% CO2/37° C. The cells were cultured in a 96 well plate at 1×10^4 cells/well for 48 hours, washed twice with DMEM and then cultured for 24 hours. Candidate substances were prepared at final concentrations of 25 and 100 μM, applied to the wells at 200 μl per well and cultured for 24 hours. MTT assay was used to measure the absorbance at 570 nm after colorization in violet.

[6] = tested on: human liver cells (HepG2); assay: Cytotoxicity in human liver cells HepG2 (WST-1); assay type: cell-based; settings: HepG2, 250 μM, 18 hours
Experimental: 5-3. Evaluation of Cytotoxicity of Candidate Substances Using Human Liver Cells
Experiments were conducted to evaluate cytotoxicity in human liver cells (HepG2). HepG2 cells, which are human liver carcinoma cell lines, were cultured in DMEM (Dulbecco's minimum essential medium) supplemented with 10% FBS (fetal bovine serum) and 1% Penicillin/Streptomycin at 37° C. and 5% CO2. The cells were cultured in a 48 well plate at 4×10^4 cells/well for 24 hours and then used in the experiments. The HepG2 cells were treated with the candidate substances (250 μM) for 18 hours, and then the medium was removed and WST-1 was added, followed by shading for 3 hours for reaction. After 3 hours, the supernatant was taken and absorbance was measured at 450 nm. Cell viability was calculated by comparing the absorbance measured after adding WST-1 to HepG2 cells not treated with the candidate substances. Acetaminophen (40 mM) was used as a control.

SMILES	inhibited shear stress-induced platelet aggregation in WP [1]	inhibition at 10 µM [1]	inhibition at 25 µM [1]	inhibition at 50 µM [1]	Time of thrombogenesis [2]	Degree of platelet aggregation (%, Mean ± SEM) ([3]; 25 μM)	Degree of platelet aggregation (%, Mean ± SEM) ([3]; 100 μM)	Degree of platelet aggregation (%, Mean ± SEM) ([3]; 250 μM)	Degree of platelet aggregation (%, Mean ± SEM) ([4]; compound 25 μM)	Degree of platelet aggregation (%, Mean ± SEM) ([4]; compound 100 μM)	Degree of platelet aggregation (%, Mean ± SEM) ([4]; compound 250 μM)	Cell viability (%) ([5]; EA.hy926, 25 μM)	Cell viability (%) ([5]; EA.hy926, 100 μM)	Cell vaibility (%) [6]	Fold (vs. Control) [2]
O=C(c1ccc(O)c(O)c1)N1CCc2sccc2C1 [Example 1, (6,7-Dihydrothieno[3,2-c]pyridin-5(4H)-yl)(3,4-dihydroxyphenyl)methanone]	in a dose-dependent manner	4 ± 3.5%	23 ± 1.2%	27 ± 1.7%	936 ± 120 s	84.3 ± 3.5%	80.7 ± 10.2%	84.3 ± 3.8%	77.5 ± 3.5%	69.0 ± 6.0%	78.0 ± 7.0%	92.2 ± 2.8%	94.2 ± 1.9%	91.7 ± 2.0%	–
COc1cc(C(=O)N2CCc3sccc3C2)ccc1O [Example 12, (6,7-Dihydrothieno[3,2-c]pyridin-5(4H)-yl)(4-hydroxy-3-methoxyphenyl)methanone]	in a dose-dependent manner	10 ± 2.1%	30 ± 0.9%	33 ± 2.1%	665 ± 77 s	83.0 ± 4.0%	80.0 ± 2.0%	87.5 ± 3.5%	76.0 ± 3.0%	67.5 ± 2.5%	77.0 ± 12.0%	95.1 ± 1.9%	97.2 ± 2.8%	89.0 ± 2.3%	1.9
CCc1occc(=O)c1OC(=O)c1ccc(O)c(OC)c1 [Example 13, 2-Ethyl-4-oxo-4H-pyran-3-yl 4-hydroxy-3-methoxybenzoate]	in a dose-dependent manner	12 ± 3.8%	29 ± 4.1%	34 ± 2.7%	752 ± 69 s	90.0 ± 3.0%	79.5 ± 0.5%	85.5 ± 3.5%	75.5 ± 1.5%	75.0 ± 1.0%	71.5 ± 6.5%	100.1 ± 1.9%	94.2 ± 2.0%	98.3 ± 5.5%	2.1

— patent US10730886B2, “Compound having effect of inhibiting platelet aggregation and salt thereof, and composition for preventing or treating thrombotic diseases, containing same” (SHIN POONG PHARMACEUTICAL CO., LTD., priority 2015, dated 2020)
